Measurements as given in US20060204460A1, “Lip gloss composition” (KOKYU ALCOHOL KOGYO CO., LTD., priority 2005, published 2006).

Test: Viscosity of liquid oil (E) on a Brookfield viscometer
Format: physicochemical
Conditions: at 25 degrees C., No. 2 spindle, 12 rpm
Experimental: The liquid oil having a viscosity of from 5 to 400 mPa·s at 25 degrees C., (E), is known and commonly used in cosmetics. The viscosity of the liquid oil at 25 degrees C. is preferably 8 to 350 mPa·s, and more preferably 12 to 300 mPa·s. […] The viscosity is measured on a Brookfield viscometer using No. 2 spindle at 12 rpm.
`CCCCCCCCCCCCCCCCOC(=O)C(CC)CCCC` (stereo not drawn) [cetyl ethylhexanoate] showed a Viscosity of 13 mPa·s. In the case of `CC(C)CCCCCCOC(=O)CCCCCC(C)C` [isononyl isononanoate], the Viscosity is reported as 6 mPa·s. `CC(C)CCCCCCCCCCCCCCC(=O)OC(C)C` [isopropyl isostearate] showed a Viscosity of 10 mPa·s. Work on `CCCCCCCCCCCCCCCC(=O)OC(C)C` [isopropyl palmitate] yielded a Viscosity of 7 mPa·s. With `CC(C)CCCCCCCCCCCCCCCOC(=O)CCCCCCCCCCCCCCC(C)C` [isostearyl isostearate] the Viscosity was 40 mPa·s. `CC(C)CCCCCCCCCCCCCCCOC(=O)C(C)(C)C` [isostearyl neopentanoate] gave a Viscosity of 15 mPa·s. In the case of `CC(C)CCCCCCCCCCOC(=O)CCCCCC(C)C` [isotridecyl isononanoate], the Viscosity is reported as 12 mPa·s. Compound `CCCCCCCCCC(=O)OCC(C)(C)COC(=O)CCCCCCCCC` [neopentylglycol dicaprate] has a Viscosity of 19 mPa·s. In the case of `CCCCC(CC)C(=O)OCC(C)(C)COC(=O)C(CC)CCCC` (stereo not drawn) [neopentylglycol diethylhexanoate], the Viscosity is reported as 13 mPa·s. Compound `CCCCC(CC)C(=O)OCC(COC(=O)C(CC)CCCC)(COC(=O)C(CC)CCCC)COC(=O)C(CC)CCCC` (stereo not drawn) [pentaerythrityl tetraethylhexanoate] has a Viscosity of 110 mPa·s. With `CC(C)CCCC(C)CCCC(C)CCCCC(C)CCCC(C)CCCC(C)C` (stereo not drawn) [squalane] the Viscosity was 32 mPa·s. In the case of `CCCCC(CC)C(=O)OCC(COC(=O)C(CC)CCCC)OC(=O)C(CC)CCCC` (stereo not drawn) [triethyl hexanoin], the Viscosity is reported as 35 mPa·s. In the case of diisopropyl dilinoleate, the Viscosity is reported as 310 mPa·s. Work on ethylhexyl hydroxystearate yielded a Viscosity of 64 mPa·s. Work on hexyldecyl ethylhexanoate yielded a Viscosity of 11 mPa·s. In the case of hexyldecyl isostearate, the Viscosity is reported as 34 mPa·s. isononyl ethylhexanoate gave a Viscosity of 5 mPa·s. Compound octyldodecyl neodecanoate has a Viscosity of 25 mPa·s. With octyldodecyl neopentanoate the Viscosity was 15 mPa·s. In the case of octyldodecyl stearoyloxystearate, the Viscosity is reported as 90 mPa·s. Compound pentaerythrityl tetraisostearate has a Viscosity of 290 mPa·s. For triisostearine, the Viscosity was 185 mPa·s. trimethylolpropane triethylhexanoate showed a Viscosity of 52 mPa·s. Compound trimethylolpropane triisostearate has a Viscosity of 180 mPa·s.
